Data as given in patent US9227971B2, “Pyrazolo[1,5-a]pyrimidine compounds as mTOR inhibitors” (Merck Sharp & Dohme Corp., priority 2010, dated 2016).
Read-outs that look alike come from different tables or passages of the source.

Legend:
[1] = tested on: phosphorylated 4E-BP1 Thr37/46 (p4E-BP1 Thr37/46), mTORC1 activity, PC3 cells; experiment: mTOR target engagement assay, immunofluorescent cell-based, p4E-BP1 Thr37/46 readout (mTORC1 activity); conditions: read-out: p4E-BP1 Thr37/46 IC50
Summary of the method: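 Read-out is fluorescence intensity of immunostained p4E-BP1 Thr37/46 in fixed PC3 cells, fitted to a logistic curve for IC50 with DMSO-only wells as top. Cells had been exposed to serial compound dilutions for ninety minutes at 37° C in 5% FBS medium with 0.25% DMSO.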

[2] = tested on: phosphorylated AKT Ser473 (pAKT S473), mTORC2 activity, PC3 cells; experiment: mTOR target engagement assay, immunofluorescent cell-based, pAKT S473 readout (mTORC2 activity)
Summary of the method: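 After blocking, cells were stained overnight at 4 °C with anti-pAKT S473 antibody, then a fluorescent secondary; inhibition was read as reduced fluorescence intensity.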

[3] = Homo sapiens, PC-3, PC3 cells, compound treatment ninety minutes at 37° C.
[4] = Homo sapiens, PC-3, Table 3-1, PC3 cells
[5] = Homo sapiens, PC-3, Table 6-1, PC3 cells

## CNC(=O)Nc1ccc(-c2cnn3c(N)cc([C@@H]4C[C@H]5CC[C@@H](C4)N5C(=O)CO)nc23)cc1 [Compound 8.82, 1-(4-(7-amino-5-((1R,3s,5S)-8-(2-hydroxyacetyl)-8-azabicyclo[3.2.1]octan-3-yl)pyrazolo[1,5-a]pyrimidin-3-yl)phenyl)-3-methylurea]
[1]; Homo sapiens, PC-3, PC3 cells
  IC50: > 10000 nM
[2]; Homo sapiens, PC-3, PC3 cells
  IC50: > 10000 nM

## CC(=O)c1c([C@@H]2C[C@H]3CC[C@@H](C2)N3C(=O)CO)nc2c(-c3ccc(C(C)(C)O)nc3)cnn2c1N [Compound 7.8, 1-((1R,3s,5S)-3-(6-acetyl-7-amino-3-(6-(2-hydroxypropan-2-yl)pyridin-3-yl)pyrazolo[1,5-a]pyrimidin-5-yl)-8-azabicyclo[3.2.1]octan-8-yl)-2-hydroxyethanone]
[1]; [3]
  IC50: 100 to 1000 nM
[2]; [3]
  IC50: 100 to 1000 nM

## CC(=O)c1c([C@@H]2C[C@H]3CC[C@@H](C2)N3C(=O)c2ncn[nH]2)nc2c(-c3cnc(C(C)(C)O)c(F)c3)cnn2c1N [Compound 7.98, 1-(5-((1R,3s,5S)-8-(1H-1,2,4-triazole-5-carbonyl)-8-azabicyclo[3.2.1]octan-3-yl)-7-amino-3-(5-fluoro-6-(2-hydroxypropan-2-yl)pyridin-3-yl)pyrazolo[1,5-a]pyrimidin-6-yl)ethanone]
[1]; Homo sapiens, PC-3, PC3 cells
  IC50: 1 to 100 nM
[2]; Homo sapiens, PC-3, PC3 cells
  IC50: 1 to 100 nM

## CNC(=O)c1ccc(-c2cnn3c(N)c(S(C)(=O)=O)c([C@@H]4C[C@H]5CC[C@@H](C4)N5C(=O)c4nc[nH]n4)nc23)cn1 [Compound 3.17, 5-(5-((1R,3s,5S)-8-(1H-1,2,4-triazole-3-carbonyl)-8-azabicyclo[3.2.1]octan-3-yl)-7-amino-6-(methylsulfonyl)pyrazolo[1,5-a]pyrimidin-3-yl)-N-methylpicolinamide]
[1]; [4]
  IC50: 1000 to 10000 nM
[2]; [4]
  IC50: > 10000 nM

## COc1ccc(-c2ccc(-c3cnn4c(N)c(C(C)=O)c([C@@H]5C[C@H]6CC[C@@H](C5)N6C(=O)c5nnc[nH]5)nc34)cn2)cc1 [Compound 1.1.46, 1-(5-((1R,3s,5S)-8-(4H-1,2,4-triazole-3-carbonyl)-8-azabicyclo[3.2.1]octan-3-yl)-7-amino-3-(6-(4-methoxyphenyl)pyridin-3-yl)pyrazolo[1,5-a]pyrimidin-6-yl)ethanone]
[1]; [3]
  IC50: 1 to 100 nM
[2]; [3]
  IC50: 1 to 100 nM

## COc1nnc(C(=O)N2C3CCC2CC(c2nc4c(-c5ccc(-c6ccccc6)nc5)cnn4c(N)c2C2CC2)C3)[nH]1 [Compound 8.103, ((1R,3s,5S)-3-(7-amino-6-cyclopropyl-3-(6-phenylpyridin-3-yl)pyrazolo[1,5-a]pyrimidin-5-yl)-8-azabicyclo[3.2.1]octan-8-yl)(5-methoxy-4H-1,2,4-triazol-3-yl)methanone]
[1]; Homo sapiens, PC-3, PC3 cells
  IC50: 100 to 1000 nM
[2]; Homo sapiens, PC-3, PC3 cells
  IC50: 100 to 1000 nM

## CC(=O)c1c([C@@H]2C[C@H]3CC[C@@H](C2)N3C(=O)CO)nc2c(-c3ccc(-c4n[nH]c(C)c4F)nc3)cnn2c1N [Compound 1.11..107, 1-((1R,3s,5S)-3-(6-acetyl-7-amino-3-(6-(4-fluoro-5-methyl-1H-pyrazol-3-yl)pyridin-3-yl)pyrazolo[1,5-a]pyrimidin-5-yl)-8-azabicyclo[3.2.1]octan-8-yl)-2-hydroxyethanone]
[1]; [3]
  IC50: 100 to 1000 nM
[2]; [3]
  IC50: 100 to 1000 nM

## CC(=O)Nc1nnc(C(=O)N2[C@@H]3CC[C@H]2C[C@H](c2nc4c(-c5ccc(-c6ccccc6)nc5)cnn4c(N)c2C2CC2)C3)[nH]1 [Compound 4.28, N-(5-((1R,3s,5S)-3-(7-amino-6-cyclopropyl-3-(6-phenylpyridin-3-yl)pyrazolo[1,5-a]pyrimidin-5-yl)-8-azabicyclo[3.2.1]octane-8-carbonyl)-4H-1,2,4-triazol-3-yl)acetamide]
[1]; [3]
  IC50: 100 to 1000 nM
[2]; [3]
  IC50: 100 to 1000 nM

## Cc1cnc(-c2ccc(-c3cnn4c(N)c(C5CC5)c([C@@H]5C[C@H]6CC[C@@H](C5)N6C(=O)CO)nc34)cn2)[nH]1 [Compound 6.27, 1-((1R,3s,5S)-3-(7-amino-6-cyclopropyl-3-(6-(5-methyl-1H-imidazol-2-yl)pyridin-3-yl)pyrazolo[1,5-a]pyrimidin-5-yl)-8-azabicyclo[3.2.1]octan-8-yl)-2-hydroxyethanone]
[1]; [5]
  IC50: 1 to 100 nM
[2]; [5]
  IC50: 1 to 100 nM

## CS(=O)(=O)c1c([C@@H]2C[C@H]3CC[C@@H](C2)N3C(=O)c2cccc(=O)[nH]2)nc2c(-c3ccc(-c4ccccc4)nc3)cnn2c1N [Compound 3.140, 6-((1R,3s,5S)-3-(7-amino-6-(methylsulfonyl)-3-(6-phenylpyridin-3-yl)pyrazolo[1,5-a]pyrimidin-5-yl)-8-azabicyclo[3.2.1]octane-8-carbonyl)pyridin-2(1H)-one]
[1]; [4]
  IC50: 100 to 1000 nM
[2]; [4]
  IC50: 1 to 100 nM

## CS(=O)(=O)c1c([C@@H]2C[C@H]3CC[C@@H](C2)N3C(=O)c2cc(N)n[nH]2)nc2c(-c3ccc(-c4ccccc4)nc3)cnn2c1N [Compound 3.75, (3-amino-1H-pyrazol-5-yl)((1R,3s,5S)-3-(7-amino-6-(methylsulfonyl)-3-(6-phenylpyridin-3-yl)pyrazolo[1,5-a]pyrimidin-5-yl)-8-azabicyclo[3.2.1]octan-8-yl)methanone]
[1]; [4]
  IC50: 1 to 100 nM
[2]; [4]
  IC50: 1 to 100 nM

## CC(=O)c1c([C@@H]2C[C@H]3CC[C@@H](C2)N3C(=O)c2nnc(N)[nH]2)nc2c(-c3ccc(C(O)(C(F)(F)F)C(F)(F)F)nc3)cnn2c1N [Compound 7.78, 1-(7-amino-5-((1R,3s,5S)-8-(5-amino-4H-1,2,4-triazole-3-carbonyl)-8-azabicyclo[3.2.1]octan-3-yl)-3-(6-(1,1,1,3,3,3-hexafluoro-2-hydroxypropan-2-yl)pyridin-3-yl)pyrazolo[1,5-a]pyrimidin-6-yl)ethanone]
[1]; Homo sapiens, PC-3, PC3 cells
  IC50: 100 to 1000 nM
[2]; Homo sapiens, PC-3, PC3 cells
  IC50: 100 to 1000 nM

## COc1ccc(-c2ccc(-c3cnn4c(N)c(S(C)(=O)=O)c([C@H]5CC6CC[C@H](C5)N6C(=O)c5cn[nH]n5)nc34)cn2)cc1F [Compound 3.169, ((1R,3a,5S)-3-(7-amino-3-(6-(3-fluoro-4-methoxyphenyl)pyridin-3-yl)-6-(methylsulfonyl)pyrazolo[1,5-a]pyrimidin-5-yl)-8-azabicyclo[3.2.1]octan-8-yl)(2H-1,2,3-triazol-4-yl)methanone]
[1]; [4]
  IC50: 100 to 1000 nM
[2]; [4]
  IC50: 1 to 100 nM

## CS(=O)(=O)c1c([C@@H]2C[C@H]3CC[C@@H](C2)N3C(=O)c2ncccc2O)nc2c(-c3ccc(-c4ccccc4)nc3)cnn2c1N [Compound 3.13]
[1]; [4]
  IC50: 100 to 1000 nM
[2]; [4]
  IC50: 100 to 1000 nM

## CC(=O)c1c([C@@H]2C[C@H]3CC[C@@H](C2)N3C(=O)CO)nc2c(-c3ccc(-c4c(F)cccc4F)nc3)cnn2c1N [Compound 1.1.171, 1-((1R,3s,5S)-3-(6-acetyl-7-amino-3-(6-(2,6-difluorophenyl)pyridin-3-yl)pyrazolo[1,5-a]pyrimidin-5-yl)-8-azabicyclo[3.2.1]octan-8-yl)-2-hydroxyethanone]
[1]; [3]
  IC50: 1 to 100 nM
[2]; [3]
  IC50: 1 to 100 nM

## CC(=O)c1c([C@@H]2C[C@H]3CC[C@@H](C2)N3C(=O)c2ccn[nH]2)nc2c(-c3ccc(-c4ccc(F)cc4F)nc3)cnn2c1N [Compound 1.1.167, 1-(5-((1R,3s,5S)-8-(1H-pyrazole-5-carbonyl)-8-azabicyclo[3.2.1]octan-3-yl)-7-amino-3-(6-(2,4-difluorophenyl)pyridin-3-yl)pyrazolo[1,5-a]pyrimidin-6-yl)ethanone]
[1]; [3]
  IC50: 100 to 1000 nM
[2]; [3]
  IC50: 1 to 100 nM

## CS(=O)(=O)c1c([C@@H]2C[C@H]3CC[C@@H](C2)N3C(=O)c2nnc[nH]2)nc2c(-c3ccc(-c4ccc(OCF)cc4)nc3)cnn2c1N [Compound 3.63, ((1R,3s,5S)-3-(7-amino-3-(6-(4-(fluoromethoxy)phenyl)pyridin-3-yl)-6-(methylsulfonyl)pyrazolo[1,5-a]pyrimidin-5-yl)-8-azabicyclo[3.2.1]octan-8-yl)(4H-1,2,4-triazol-3-yl)methanone]
[1]; Table 3-1, PC3 cells
  IC50: 1 to 100 nM
[2]; Table 3-1, PC3 cells
  IC50: 1 to 100 nM

## CS(=O)(=O)c1c([C@@H]2C[C@H]3CC[C@@H](C2)N3C(=O)c2nnc[nH]2)nc2c(-c3ccc(-c4cn[nH]c4)nc3)cnn2c1N [Compound 3.109, ((1R,3s,5S)-3-(3-(6-(1H-pyrazol-4-yl)pyridin-3-yl)-7-amino-6-(methylsulfonyl)pyrazolo[1,5-a]pyrimidin-5-yl)-8-azabicyclo[3.2.1]octan-8-yl)(4H-1,2,4-triazol-3-yl)methanone]
[1]; [4]
  IC50: 1000 to 10000 nM
[2]; [4]
  IC50: 1000 to 10000 nM

## Cn1nnc(-c2ccc(-c3cnn4c(N)c(S(C)(=O)=O)c([C@@H]5C[C@H]6CC[C@@H](C5)N6C(=O)CO)nc34)cn2)n1 [Compound 3.43, 1-((1R,3a,5S)-3-(7-amino-3-(6-(2-methyl-2H-tetrazol-5-yl)pyridin-3-yl)-6-(methylsulfonyl)pyrazolo[1,5-a]pyrimidin-5-yl)-8-azabicyclo[3.2.1]octan-8-yl)-2-hydroxyethanone]
[1]; [4]
  IC50: > 10000 nM
[2]; [4]
  IC50: 1000 to 10000 nM

## COc1ccc(-c2ccc(-c3cnn4c(N)c(S(C)(=O)=O)c([C@@H]5C[C@H]6CC[C@@H](C5)N6C(=O)c5nnc(C)[nH]5)nc34)cn2)cc1 [Compound 3.34, ((1R,3s,5S)-3-(7-amino-3-(6-(4-methoxyphenyl)pyridin-3-yl)-6-(methylsulfonyl)pyrazolo[1,5-a]pyrimidin-5-yl)-8-azabicyclo[3.2.1]octan-8-yl)(5-methyl-4H-1,2,4-triazol-3-yl)methanone]
[1]; [4]
  IC50: 1 to 100 nM
[2]; [4]
  IC50: 1 to 100 nM
